For seven compounds, TGI results are on record in PubChem BioAssay (NCI).

Some test systems named below: NCI/ADR-RES ovarian; SF-539 CNS; HCC-2998 colon; HS 578T breast; UACC-62 melanoma; MDA-MB-231 breast; OVCAR-5 ovarian; NCI-H23 lung; A549 NSCLC; NCI-H460 lung; ACHN renal; HOP-92 NSCLC; PC-3 prostate; SK-OV-3 ovarian; SNB-75 CNS; BT-549 breast; K-562 leukemia; HT29 colon; T-47D breast; SR leukemia.
Test in all cases: DTP human tumour cell line panel, 48 h

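Test compounds were applied to cells in 96-well plates for 48 hours at 5 doses. TGI: total growth inhibition.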

Regarding `C=C(Nc1nc2ccc(C)cc2s1)C(=O)C(CC)C(=O)C(CC)CC1C(=O)NC(=O)NC1=O` (centres undefined), the TGI in the test on NCI/ADR-RES ovarian, in the test on SF-539 CNS, in the test with HCC-2998 colon, with HS 578T breast, in the test on UACC-62 melanoma and in the test on MDA-MB-231 breast was more than 100 µM each time. In addition, the TGI in the test with OVCAR-5 ovarian, in the test on NCI-H23 lung, in the test with A549 NSCLC, in the test on NCI-H460 lung, in the test on ACHN renal and in the test on HOP-92 NSCLC was more than 100 µM each time. The TGI with PC-3 prostate, in the test with SK-OV-3 ovarian, in the test on SNB-75 CNS and in the test on BT-549 breast was more than 100 µM throughout.
Take `Cc1nc2ccc(F)cc2c2c1CCN2c1ccc(Cl)cc1`: the TGI in the test with NCI/ADR-RES ovarian stood at 19.8 µM; with SF-539 CNS, 24.3 µM; with HCC-2998 colon, 29.4 µM; in the test on K-562 leukemia it was 13.4 µM; with HS 578T breast, 79.5 µM; in the test on UACC-62 melanoma, 39.1 µM. Moreover, the total growth inhibition concentration (TGI) with MDA-MB-231 breast was 30.6 µM; in the test with OVCAR-5 ovarian, more than 100 µM; in the test with NCI-H23 lung, 48.2 µM; with A549 NSCLC, more than 100 µM; with NCI-H460 lung it was 47.7 µM; in the test with ACHN renal, 96.2 µM. The TGI was 22.7 µM in the test with PC-3 prostate; more than 100 µM in the test on SK-OV-3 ovarian; more than 100 µM with SNB-75 CNS; 67.2 µM with BT-549 breast; 22.4 µM in the test with HT29 colon.
Take `Cc1ccc(Cl)c2c(=O)c3ccc(N)cc3sc12`: the total growth inhibition concentration (TGI) with NCI/ADR-RES ovarian stood at 35 µM; in the test with SF-539 CNS it was 45.1 µM; in the test with K-562 leukemia, 48.6 µM; in the test on HS 578T breast it was 33.6 µM; in the test with UACC-62 melanoma, 30.8 µM; in the test on T-47D breast, 87.1 µM. Moreover, the TGI was 74.8 µM in the test with MDA-MB-231 breast; more than 100 µM in the test on OVCAR-5 ovarian; 97.4 µM in the test on NCI-H23 lung; 85.3 µM in the test with A549 NSCLC; more than 100 µM in the test on NCI-H460 lung; 57.5 µM with ACHN renal. Also, the TGI is 76.7 µM in the test with PC-3 prostate, 37.8 µM in the test on SNB-75 CNS, more than 100 µM with BT-549 breast and 38.5 µM in the test on HT29 colon.
As to `CNCCCn1c2ccccc2c2c3c(c(-c4ccsc4)cc21)C(=O)NC3=O`, the total growth inhibition concentration (TGI) was determined as 2.19 µM in the test on NCI/ADR-RES ovarian; 0.182 µM in the test with SF-539 CNS; 55.5 µM with HCC-2998 colon; 3.06 µM in the test with MDA-MB-231 breast; 3.16 µM in the test on OVCAR-5 ovarian; 1.74 µM in the test on NCI-H23 lung. Moreover, the TGI in the test on A549 NSCLC came to 2.76 µM; with ACHN renal it was 1.23 µM; in the test on HOP-92 NSCLC, 2.22 µM; in the test on SR leukemia, 0.349 µM; in the test on PC-3 prostate, 1.78 µM; in the test with SK-OV-3 ovarian, 2.63 µM. Also, the TGI was 3.43 µM with SNB-75 CNS, 13.7 µM with BT-549 breast and 2.56 µM in the test on HT29 colon.
For `CC(C)(C)OC/C=C(/CO)[C@@H]1C=C[C@H](O)C1`, the concentration for total growth inhibition (TGI) with NCI/ADR-RES ovarian, in the test on SF-539 CNS, in the test on HCC-2998 colon, with K-562 leukemia, in the test with UACC-62 melanoma and in the test with T-47D breast was more than 100 µM in each case. For the same compound, the TGI in the test on MDA-MB-231 breast, with OVCAR-5 ovarian, with NCI-H23 lung, in the test with A549 NSCLC, in the test with NCI-H460 lung and in the test with ACHN renal was more than 100 µM in each case. Further, the TGI in the test with PC-3 prostate, with SK-OV-3 ovarian, in the test on SNB-75 CNS, with BT-549 breast and in the test with HT29 colon was more than 100 µM throughout.
On to `COC(=O)c1nsc(OC)c1Cl`, for which the TGI with NCI/ADR-RES ovarian, in the test on SF-539 CNS, with HCC-2998 colon, in the test with K-562 leukemia, with HS 578T breast and in the test with UACC-62 melanoma was more than 100 µM in each case. For the same compound, the concentration for total growth inhibition (TGI) with MDA-MB-231 breast, in the test with OVCAR-5 ovarian, with NCI-H23 lung, with A549 NSCLC, in the test on PC-3 prostate and with SK-OV-3 ovarian was more than 100 µM in each case. For the same compound, the TGI with SNB-75 CNS, in the test with BT-549 breast and in the test on HT29 colon was more than 100 µM throughout.
In the case of `Nc1ccn([C@H]2CO[C@@H](CO)[C@@H]2O)c(=O)n1`, the TGI in the test on NCI/ADR-RES ovarian, in the test on SF-539 CNS, in the test with HCC-2998 colon, in the test with K-562 leukemia, in the test with UACC-62 melanoma and with T-47D breast was more than 100 µM each time. Also, the TGI with MDA-MB-231 breast, in the test on OVCAR-5 ovarian, in the test with NCI-H23 lung, with NCI-H460 lung, with ACHN renal and in the test with HOP-92 NSCLC was more than 100 µM throughout. For the same compound, the TGI in the test on SR leukemia, in the test with PC-3 prostate, with SK-OV-3 ovarian, with SNB-75 CNS, in the test with BT-549 breast and in the test with HT29 colon was more than 100 µM throughout.
